Source: patent publication US10829458B2 (Araxes Pharma LLC, priority 2015, dated 2020)

Each molecule was assayed against T1, KRAS G12C 1-169, his-tagged protein, GDP-loaded (Homo sapiens, UniProt P01116, G12C) (assay: Biochemical assay: covalent modification of KRAS G12C measured by mass spectrometry (RapidFire/TOF or Q-Exactive)). Conditions: covalent binding to KRAS G12C; compounds of structure (I).
T1 construct: KRAS G12C 1-169, his-tagged protein, GDP-loaded
Experimental: Test compounds were prepared as 10 mM stock solutions in DMSO (Fisher cat #BP-231-100). KRAS G12C 1-169, his-tagged protein, GDP-loaded was diluted to 2 μm in buffer (20 mM Hepes, 150 mM NaCl, 1 mM MgCl2). Compounds were tested for activity as follows:
Compounds were diluted to 50× final test concentration in DMSO in 96-well storage plates. Compound stock solutions were vortexed before use and observed carefully for any sign of precipitation. Dilutions were as follow: • For 100 μM final compound concentration, compounds were diluted to 5000 μM (5 μl 10 mM compound stock+5 μl DMSO and mixed well by pipetting. • For 30 μM final compound concentration, compounds were diluted to 1500 μM (3 μl 10 mM compound stock+17p DMSO) and mixed well by pipetting. • For 10 μM final compound concentration, compounds were diluted to 500 μM (2 μl 10 mM compound stock+38p DMSO) and mixed well by pipetting. 49p of the stock protein solution was added to each well of a 96-well PCR plate (Fisher cat #1423027). 1 μl of the diluted 50× compounds were added to appropriate wells in the PCR plate using 12-channel pipettor. Reactions were mixed carefully and thoroughly by pipetting up/down with a 200·1 multi-channel pipettor. The plate was sealed well with aluminum plate seal, and stored in drawer at room temperature for 30 min, 2 hour or 24 hrs. 5·1 of 2% formic acid (Fisher cat #A117) in DI H2O was then added to each well followed by mixing with a pipette. The plate was then resealed with aluminum seal and stored on dry ice until analyzed as described below.
The above described assays were analyzed by mass spectrometry according to one of the following two procedures:
The MS instrument is set to positive polarity, 2 GHz resolution, and low mass (1700) mode and allowed to equilibrate for 30 minutes. The instrument is then calibrated, switched to acquisition mode and the appropriate method loaded.
After another 30 minute equilibration time, a blank batch (i.e., buffer) is run to ensure equipment is operating properly. The samples are thawed at 37° C. for 10 minutes, briefly centrifuged, and transfer to the bench top. Wells A1 and H12 are spiked with 1 uL 500 uM internal standard peptide, and the plates centrifuged at 2000×g for 5 minutes. The method is then run and masses of each individual well recorded.
The masses (for which integration data is desired) for each well are pasted into the platemap and exported from the analysis. Masses for the internal standards are exported as well. The data at 50 ppm is extracted for the +19 charge state, and identity of well A1 is assigned using the internal standard spike and integrated. Peak data is exported as a TOF list and the above steps are repeated individually, for the +20, 21, 22, 23, 24, and 25 charge states.
The masses and peak intensities of KRAS G12C protein species were measured using a Dionex RSLCnano system (Thermo Scientific) connected to a Q Exactive Plus mass spectrometer (Thermo Scientific).
[…] of sample was each loaded onto a Aeris™ 3.6 μm WIDEPORE C4 200 Å, LC Column 50×2.1 mm column maintained at 40° C. at a flow rate of 600 μl min^−1 with […] (0.1% formic acid in acetonitrile). The liquid chromatography conditions were 20% solvent B for 1 min, 20% to 60% solvent B for 1.5 min, 60% to 90% solvent for 0.5 min, 90% solvent B for 0.2 min, 90% to 20% solvent B for 0.2 min, and then equilibrated for 1.6 min before the following sample injection. The flow rate was maintained at 600 μl min^−1 throughout the sample analysis.
The mass spectrometer was operated in profile mode at a resolution of 17500, 5 microscans, using 50 msec max injection time and an AGC target of 1e6, and a full mass range from 800-1850 m/z was recorded. The HCD trapping gas was optimized for maximum sensitivity for intact proteins. […]

Row | Structure (SMILES) | Binding %
1 | C=CC(=O)N1CCN(c2nc(OCCN3CCOCC3)nc3c(F)c(-c4c(O)cccc4F)c(Cl)cc23)CC1 (atropisomer, axis not shown) [Example I-28, (R)-1-(4-(6-chloro-8-fluoro-7-(2-fluoro-6-hydroxyphenyl)-2-(2-morpholino-ethoxy)quinazolin-4-yl)piperazin-1-yl)prop-2-en-1-one] | + (+ indicates binding activity up to 50%)
2 | C=CC(=O)N1CCN(c2nc(OCCN3CCOCC3)nc3c(F)c(-c4c(O)cccc4F)c(Cl)cc23)CC1 (atropisomer, axis not shown) [Example I-29, (S)-1-(4-(6-chloro-8-fluoro-7-(2-fluoro-6-hydroxyphenyl)-2-(2-morpholino-ethoxy)quinazolin-4-yl)piperazin-1-yl)prop-2-en-1-one] | +++ (+++ indicates binding activity greater than 90%)
3 | C=CC(=O)N1CCN(c2nc(OCCN3CCOCC3)nc3c(F)c(-c4c(C)ccc5[nH]ncc45)c(Cl)cc23)CC1 (atropisomer, axis not shown) [Example I-31, (R)-1-(4-(6-chloro-8-fluoro-7-(5-methyl-1H-indazol-4-yl)-2-(2-morpholino-ethoxy)quinazolin-4-yl)piperazin-1-yl)prop-2-en-1-one] | +++ (+++ indicates binding activity greater than 90%)
4 | C=CC(=O)N1CCN(c2nc(OCCN3CCOCC3)nc3c(F)c(-c4c(C)ccc5[nH]ncc45)c(Cl)cc23)CC1 (atropisomer, axis not shown) [Example I-32, (S)-1-(4-(6-chloro-8-fluoro-7-(5-methyl-1H-indazol-4-yl)-2-(2-morpholino-ethoxy)quinazolin-4-yl)piperazin-1-yl)prop-2-en-1-one] | + (+ indicates binding activity up to 50%)
5 | C=CC(=O)N1CCN(c2nc(OCCN3CCOCC3)nc3c(F)c(-c4cc(O)cc5ccccc45)c(Cl)cc23)CC1 (atropisomer, axis not shown) [Example I-51, (S)-1-(4-(6-chloro-8-fluoro-7-(3-hydroxy-naphthalen-1-yl)-2-(2-morpholino-ethoxy)quinazolin-4-yl)piperazin-1-yl)prop-2-en-1-one] | +++ (+++ indicates binding activity greater than 90%)
6 | C=CC(=O)N1CCN(c2nc(OCCN3CCOCC3)nc3c(F)c(-c4cc(O)cc5ccccc45)c(Cl)cc23)CC1 (atropisomer, axis not shown) [Example I-52, (R)-1-(4-(6-chloro-8-fluoro-7-(3-hydroxy-naphthalen-1-yl)-2-(2-morpholino-ethoxy)quinazolin-4-yl)piperazin-1-yl)prop-2-en-1-one] | + (+ indicates binding activity up to 50%)
7 | C=CC(=O)N1CCN(c2nc(NC3CCN(C4CC4)CC3)nc3c(F)c(-c4c(O)cccc4F)c(Cl)cc23)CC1 (atropisomer, axis not shown) [Example I-78, (S)-1-(4-(6-chloro-2-(1-cyclopropyl-piperidin-4-ylamino)-8-fluoro-7-(2-fluoro-6-hydroxyphenyl)quinazolin-4-yl)piperazin-1-yl)prop-2-en-1-one] | +++ (+++ indicates binding activity greater than 90%)
8 | C=CC(=O)N1CCN(c2nc(NC3CCN(C4CC4)CC3)nc3c(F)c(-c4c(O)cccc4F)c(Cl)cc23)CC1 (atropisomer, axis not shown) [Example I-79, (R)-1-(4-(6-chloro-2-(1-cyclopropyl-piperidin-4-ylamino)-8-fluoro-7-(2-fluoro-6-hydroxyphenyl)quinazolin-4-yl)piperazin-1-yl) prop-2-en-1-one] | + (+ indicates binding activity up to 50%)
9 | C=CC(=O)N1CCN(c2nc(NC3CCN(C4CC4)CC3)nc3c(F)c(-c4c(C)ccc5[nH]ncc45)c(Cl)cc23)CC1 (atropisomer, axis not shown) [Example I-81, (S)-1-(4-(6-chloro-2-(1-cyclopropyl-piperidin-4-ylamino)-8-fluoro-7-(5-methyl-1H-indazol-4-yl)quinazolin-4-yl)piperazin-1-yl)prop-2-en-1-one] | + (+ indicates binding activity up to 50%)
10 | C=CC(=O)N1CCN(c2nc(NC3CCN(C4CC4)CC3)nc3c(F)c(-c4c(C)ccc5[nH]ncc45)c(Cl)cc23)CC1 (atropisomer, axis not shown) [Example I-82, (R)-1-(4-(6-chloro-2-(1-cyclopropyl-piperidin-4-ylamino)-8-fluoro-7-(5-methyl-1H-indazol-4-yl)quinazolin-4-yl)piperazin-1-yl)prop-2-en-1-one] | +++ (+++ indicates binding activity greater than 90%)
11 | C=CC(=O)N1CCN(c2nc(OCCN(CC)CC)nc3c(F)c(-c4c(O)cccc4F)c(Cl)cc23)CC1 (atropisomer, axis not shown) [Example I-87, (S)-1-(4-(6-chloro-2-(2-(diethylamino)ethoxy)-8-fluoro-7-(2-fluoro-6-hydroxyphenyl)quinazolin-4-yl)piperazin-1-yl) prop-2-en-1-one] | +++ (+++ indicates binding activity greater than 90%)
12 | C=CC(=O)N1CCN(c2nc(OCCN(CC)CC)nc3c(F)c(-c4c(O)cccc4F)c(Cl)cc23)CC1 (atropisomer, axis not shown) [Example I-88, (R)-1-(4-(6-chloro-2-(2-(diethylamino)ethoxy)-8-fluoro-7-(2-fluoro-6-hydroxyphenyl)quinazolin-4-yl)piperazin-1-yl) prop-2-en-1-one] | + (+ indicates binding activity up to 50%)
13 | C=CC(=O)N1CCN(c2nc(OCCN(C)C)nc3c(F)c(-c4cc(O)cc5ccccc45)c(Cl)cc23)CC1 (atropisomer, axis not shown) [Example I-95, (S)-1-(4-(6-chloro-2-(2-(dimethylamino)ethoxy)-8-fluoro-7-(3-hydroxy-naphthalen-1-yl)quinazolin-4-yl)piperazin-1-yl)prop-2-en-1-one] | +++ (+++ indicates binding activity greater than 90%)
14 | C=CC(=O)N1CCN(c2nc(OCCN(C)C)nc3c(F)c(-c4cc(O)cc5ccccc45)c(Cl)cc23)CC1 (atropisomer, axis not shown) [Example I-96, (R)-1-(4-(6-chloro-2-(2-(dimethylamino)ethoxy)-8-fluoro-7-(3-hydroxy-naphthalen-1-yl)quinazolin-4-yl)piperazin-1-yl)prop-2-en-1-one] | + (+ indicates binding activity up to 50%)
15 | C=CC(=O)N1CCN(c2nc(OCCN3CCC(F)(F)C3)nc3c(F)c(-c4c(O)cccc4F)c(Cl)cc23)CC1 (atropisomer, axis not shown) [Example I-97, (S)-1-(4-(6-chloro-2-(2-(3,3-difluoro-pyrrolidin-1-yl)ethoxy)-8-fluoro-7-(2-fluoro-6-hydroxyphenyl)quinazolin-4-yl)piperazin-1-yl)prop-2-en-1-one] | +++ (+++ indicates binding activity greater than 90%)
16 | C=CC(=O)N1CCN(c2nc(OCCN3CCC(F)(F)C3)nc3c(F)c(-c4c(O)cccc4F)c(Cl)cc23)CC1 (atropisomer, axis not shown) [Example I-98, (R)-1-(4-(6-chloro-2-(2-(3,3-difluoro-pyrrolidin-1-yl)ethoxy)-8-fluoro-7-(2-fluoro-6-hydroxyphenyl)quinazolin-4-yl)piperazin-1-yl) prop-2-en-1-one] | + (+ indicates binding activity up to 50%)
17 | C=CC(=O)N1CCN(c2nc(OCCc3ccccn3)nc3c(F)c(-c4c(O)cccc4F)c(Cl)cc23)CC1 (atropisomer, axis not shown) [Example I-102, (R)-1-(4-(6-chloro-8-fluoro-7-(2-fluoro-6-hydroxyphenyl)-2-(2-(pyridin-2-yl)ethoxy)quinazolin-4-yl)piperazin-1-yl) prop-2-en-1-one] | + (+ indicates binding activity up to 50%)
